# Results from publication PMC11345841, “Exploring 2-Sulfonylpyrimidine Warheads as Acrylamide Surrogates for Targeted Covalent Inhibition: A BTK Story” (Journal of Medicinal Chemistry, 2024).
# Read-outs that look alike come from different tables or passages of the source.
# Tests used:
# Assay in all cases: KINOMEscan ScanTK
# Type in all cases: binding
# PYK2 = biological target: T1, PYK2 (Homo sapiens, UniProt Q14289)
# T1 construct: purchased Eurofins DiscoverX KINOMEscan (scanTK)
# ALK(L1196M) = biological target: T2, ALK(L1196M) (Homo sapiens, UniProt Q9UM73, L1196M)
# T2 construct: purchased Eurofins DiscoverX KINOMEscan (scanTK)
# T2 sequence (Q9UM73 19-1620 L1196M): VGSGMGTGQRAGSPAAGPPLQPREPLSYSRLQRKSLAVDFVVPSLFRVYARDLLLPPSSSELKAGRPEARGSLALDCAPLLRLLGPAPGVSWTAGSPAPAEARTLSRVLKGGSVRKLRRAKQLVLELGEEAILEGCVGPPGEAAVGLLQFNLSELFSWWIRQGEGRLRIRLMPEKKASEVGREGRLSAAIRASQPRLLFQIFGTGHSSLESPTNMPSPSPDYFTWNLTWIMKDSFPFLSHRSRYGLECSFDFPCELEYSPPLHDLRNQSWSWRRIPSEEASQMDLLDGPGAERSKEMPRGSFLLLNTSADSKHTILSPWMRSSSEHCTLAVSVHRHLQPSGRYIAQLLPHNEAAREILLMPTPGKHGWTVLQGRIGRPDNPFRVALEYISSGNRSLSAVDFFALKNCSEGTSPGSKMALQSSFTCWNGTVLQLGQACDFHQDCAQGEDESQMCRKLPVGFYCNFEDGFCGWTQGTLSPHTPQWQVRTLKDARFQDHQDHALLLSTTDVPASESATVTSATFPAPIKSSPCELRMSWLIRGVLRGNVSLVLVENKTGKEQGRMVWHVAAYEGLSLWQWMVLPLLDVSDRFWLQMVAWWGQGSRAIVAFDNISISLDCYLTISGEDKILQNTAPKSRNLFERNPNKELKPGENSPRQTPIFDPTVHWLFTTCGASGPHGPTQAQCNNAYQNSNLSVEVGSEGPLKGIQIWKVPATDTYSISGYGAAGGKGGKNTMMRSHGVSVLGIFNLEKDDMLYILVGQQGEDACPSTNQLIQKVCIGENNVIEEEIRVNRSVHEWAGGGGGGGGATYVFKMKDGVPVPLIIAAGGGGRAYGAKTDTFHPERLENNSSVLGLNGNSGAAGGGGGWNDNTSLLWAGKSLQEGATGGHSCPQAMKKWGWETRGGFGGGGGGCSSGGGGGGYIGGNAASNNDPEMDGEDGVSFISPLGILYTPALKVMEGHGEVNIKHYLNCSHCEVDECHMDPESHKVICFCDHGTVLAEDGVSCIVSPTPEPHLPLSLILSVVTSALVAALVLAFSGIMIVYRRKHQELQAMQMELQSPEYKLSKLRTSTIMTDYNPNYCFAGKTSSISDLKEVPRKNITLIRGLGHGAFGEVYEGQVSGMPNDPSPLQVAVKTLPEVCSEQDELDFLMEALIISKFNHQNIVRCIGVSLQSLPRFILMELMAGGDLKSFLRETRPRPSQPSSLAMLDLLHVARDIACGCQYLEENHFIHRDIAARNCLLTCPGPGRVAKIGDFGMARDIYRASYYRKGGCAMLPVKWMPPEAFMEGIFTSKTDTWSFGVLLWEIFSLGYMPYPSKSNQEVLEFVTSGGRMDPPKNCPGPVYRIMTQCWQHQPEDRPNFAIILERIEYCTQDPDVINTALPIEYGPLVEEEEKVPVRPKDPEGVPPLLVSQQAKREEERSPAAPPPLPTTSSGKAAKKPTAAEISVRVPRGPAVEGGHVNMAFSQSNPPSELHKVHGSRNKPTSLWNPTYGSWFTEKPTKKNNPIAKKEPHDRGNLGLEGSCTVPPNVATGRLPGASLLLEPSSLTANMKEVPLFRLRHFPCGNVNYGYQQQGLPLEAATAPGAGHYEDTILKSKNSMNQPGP
# FGFR3 = biological target: T3, FGFR3 (Homo sapiens, UniProt P22607)
# T3 construct: purchased Eurofins DiscoverX KINOMEscan (scanTK)
# LTK = biological target: T4, LTK (Homo sapiens, UniProt P29376)
# T4 construct: purchased Eurofins DiscoverX KINOMEscan (scanTK)
# [1] = biological target: T5, TYK2(JH1domain-catalytic) (Homo sapiens, UniProt P29597)
# T5 construct: TYK2(JH1domain-catalytic); purchased Eurofins DiscoverX KINOMEscan (scanTK)
# T5 sequence (P29597 888-1187 limits assumed): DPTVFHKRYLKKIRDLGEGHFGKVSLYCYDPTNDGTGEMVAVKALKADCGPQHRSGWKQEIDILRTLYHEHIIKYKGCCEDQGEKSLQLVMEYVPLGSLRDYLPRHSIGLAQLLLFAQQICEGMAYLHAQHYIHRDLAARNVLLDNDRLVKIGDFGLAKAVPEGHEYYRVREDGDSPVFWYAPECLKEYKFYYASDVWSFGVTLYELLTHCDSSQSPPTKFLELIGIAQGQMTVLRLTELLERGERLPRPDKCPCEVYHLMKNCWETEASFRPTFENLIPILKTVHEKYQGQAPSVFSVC
# CSF1R = biological target: T6, CSF1R (Homo sapiens, UniProt P07333)
# T6 construct: purchased Eurofins DiscoverX KINOMEscan (scanTK)
# T6 sequence (P07333 20-972): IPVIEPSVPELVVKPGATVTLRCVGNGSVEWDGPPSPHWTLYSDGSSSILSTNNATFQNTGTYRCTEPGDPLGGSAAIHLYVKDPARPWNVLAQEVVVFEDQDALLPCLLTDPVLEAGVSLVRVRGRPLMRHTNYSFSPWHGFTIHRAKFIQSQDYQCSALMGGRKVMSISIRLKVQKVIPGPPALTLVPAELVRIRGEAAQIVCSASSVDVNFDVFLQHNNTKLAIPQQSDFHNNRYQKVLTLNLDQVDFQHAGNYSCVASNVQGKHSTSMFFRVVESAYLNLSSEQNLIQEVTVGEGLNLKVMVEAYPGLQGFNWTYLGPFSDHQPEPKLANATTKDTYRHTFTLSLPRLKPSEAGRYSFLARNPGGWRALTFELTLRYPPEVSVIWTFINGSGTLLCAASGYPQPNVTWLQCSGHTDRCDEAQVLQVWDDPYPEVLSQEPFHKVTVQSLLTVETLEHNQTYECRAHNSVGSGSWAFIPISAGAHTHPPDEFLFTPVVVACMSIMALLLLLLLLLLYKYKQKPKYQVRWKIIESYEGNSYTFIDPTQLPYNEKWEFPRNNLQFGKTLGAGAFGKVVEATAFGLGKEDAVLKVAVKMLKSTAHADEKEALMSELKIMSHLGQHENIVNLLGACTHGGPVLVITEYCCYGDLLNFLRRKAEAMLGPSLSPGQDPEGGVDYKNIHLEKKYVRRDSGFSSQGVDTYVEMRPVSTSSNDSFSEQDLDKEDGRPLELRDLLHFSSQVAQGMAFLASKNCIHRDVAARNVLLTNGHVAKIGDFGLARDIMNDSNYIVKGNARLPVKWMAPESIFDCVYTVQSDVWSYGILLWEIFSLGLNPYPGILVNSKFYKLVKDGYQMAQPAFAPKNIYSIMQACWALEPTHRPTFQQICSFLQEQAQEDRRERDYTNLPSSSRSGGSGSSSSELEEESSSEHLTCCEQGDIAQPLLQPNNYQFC
# FES = biological target: T7, FES (Homo sapiens, UniProt P07332)
# T7 construct: purchased Eurofins DiscoverX KINOMEscan (scanTK)
# T7 sequence (P07332 whole entry): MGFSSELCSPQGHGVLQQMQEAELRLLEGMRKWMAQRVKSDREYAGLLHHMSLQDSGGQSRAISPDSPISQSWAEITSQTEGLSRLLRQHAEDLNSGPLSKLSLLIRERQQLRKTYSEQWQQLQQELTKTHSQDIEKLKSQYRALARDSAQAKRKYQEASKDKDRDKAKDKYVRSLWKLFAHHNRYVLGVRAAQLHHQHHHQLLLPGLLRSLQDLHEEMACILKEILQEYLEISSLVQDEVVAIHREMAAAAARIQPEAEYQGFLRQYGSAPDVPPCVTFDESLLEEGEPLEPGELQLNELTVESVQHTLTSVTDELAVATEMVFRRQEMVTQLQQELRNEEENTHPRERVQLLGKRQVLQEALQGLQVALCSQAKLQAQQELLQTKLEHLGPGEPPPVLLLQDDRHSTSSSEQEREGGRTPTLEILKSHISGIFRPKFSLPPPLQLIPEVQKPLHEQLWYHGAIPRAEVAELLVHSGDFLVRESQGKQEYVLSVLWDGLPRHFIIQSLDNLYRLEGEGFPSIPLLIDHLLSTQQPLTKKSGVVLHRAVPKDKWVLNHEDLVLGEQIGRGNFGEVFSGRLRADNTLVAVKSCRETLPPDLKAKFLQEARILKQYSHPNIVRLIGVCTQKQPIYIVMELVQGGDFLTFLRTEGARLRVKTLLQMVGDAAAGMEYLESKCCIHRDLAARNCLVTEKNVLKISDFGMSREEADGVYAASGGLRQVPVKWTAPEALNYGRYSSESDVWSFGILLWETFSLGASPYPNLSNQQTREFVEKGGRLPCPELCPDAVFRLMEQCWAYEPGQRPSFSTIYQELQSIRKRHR
# FLT3(ITD,F691L) = settings: for % difference (compound - Ib %Control) / %Control: @1000nM
# ALK = biological target: T8, ALK (Homo sapiens, UniProt Q9UM73)
# T8 construct: purchased Eurofins DiscoverX KINOMEscan (scanTK)
# T8 sequence (Q9UM73 19-1620): as the sequence (Q9UM73 19-1620 L1196M) above, with M1178L counted along it
# EGFR(L747-T751del,Sins) = settings: for % difference (compound - Ib %Control) / %Control: @1000nM
# FLT3(D835V) = biological target: T9, FLT3(D835V) (Homo sapiens, UniProt P36888, D835V)
# T9 construct: purchased Eurofins DiscoverX KINOMEscan (scanTK)
# T9 sequence (P36888 27-993 D835V): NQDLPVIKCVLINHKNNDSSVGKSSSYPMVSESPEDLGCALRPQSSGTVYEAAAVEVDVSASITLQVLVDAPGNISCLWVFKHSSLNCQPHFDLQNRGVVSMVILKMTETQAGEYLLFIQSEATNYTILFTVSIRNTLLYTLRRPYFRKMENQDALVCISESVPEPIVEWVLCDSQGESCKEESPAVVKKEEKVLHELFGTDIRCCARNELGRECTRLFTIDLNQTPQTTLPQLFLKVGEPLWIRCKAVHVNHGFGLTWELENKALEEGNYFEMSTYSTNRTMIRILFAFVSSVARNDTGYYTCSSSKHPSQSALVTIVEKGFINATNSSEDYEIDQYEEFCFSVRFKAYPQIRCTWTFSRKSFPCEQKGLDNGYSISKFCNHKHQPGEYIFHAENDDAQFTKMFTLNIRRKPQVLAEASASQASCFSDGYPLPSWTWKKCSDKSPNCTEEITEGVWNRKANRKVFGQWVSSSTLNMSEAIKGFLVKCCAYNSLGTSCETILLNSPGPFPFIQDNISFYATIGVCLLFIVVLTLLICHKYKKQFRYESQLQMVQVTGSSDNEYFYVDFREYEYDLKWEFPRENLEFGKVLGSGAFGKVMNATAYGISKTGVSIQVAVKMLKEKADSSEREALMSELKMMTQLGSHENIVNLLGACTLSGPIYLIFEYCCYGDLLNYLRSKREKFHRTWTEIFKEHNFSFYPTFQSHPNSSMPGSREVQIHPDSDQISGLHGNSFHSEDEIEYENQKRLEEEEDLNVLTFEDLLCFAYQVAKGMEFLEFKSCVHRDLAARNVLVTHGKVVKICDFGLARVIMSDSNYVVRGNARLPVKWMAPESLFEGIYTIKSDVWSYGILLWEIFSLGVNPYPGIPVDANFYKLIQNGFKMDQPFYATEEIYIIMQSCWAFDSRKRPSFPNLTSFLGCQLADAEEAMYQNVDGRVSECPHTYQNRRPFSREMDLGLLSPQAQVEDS
# ABL2 = biological target: T10, ABL2 (Homo sapiens, UniProt P42684)
# T10 construct: purchased Eurofins DiscoverX KINOMEscan (scanTK)
# T10 sequence (P42684 whole entry): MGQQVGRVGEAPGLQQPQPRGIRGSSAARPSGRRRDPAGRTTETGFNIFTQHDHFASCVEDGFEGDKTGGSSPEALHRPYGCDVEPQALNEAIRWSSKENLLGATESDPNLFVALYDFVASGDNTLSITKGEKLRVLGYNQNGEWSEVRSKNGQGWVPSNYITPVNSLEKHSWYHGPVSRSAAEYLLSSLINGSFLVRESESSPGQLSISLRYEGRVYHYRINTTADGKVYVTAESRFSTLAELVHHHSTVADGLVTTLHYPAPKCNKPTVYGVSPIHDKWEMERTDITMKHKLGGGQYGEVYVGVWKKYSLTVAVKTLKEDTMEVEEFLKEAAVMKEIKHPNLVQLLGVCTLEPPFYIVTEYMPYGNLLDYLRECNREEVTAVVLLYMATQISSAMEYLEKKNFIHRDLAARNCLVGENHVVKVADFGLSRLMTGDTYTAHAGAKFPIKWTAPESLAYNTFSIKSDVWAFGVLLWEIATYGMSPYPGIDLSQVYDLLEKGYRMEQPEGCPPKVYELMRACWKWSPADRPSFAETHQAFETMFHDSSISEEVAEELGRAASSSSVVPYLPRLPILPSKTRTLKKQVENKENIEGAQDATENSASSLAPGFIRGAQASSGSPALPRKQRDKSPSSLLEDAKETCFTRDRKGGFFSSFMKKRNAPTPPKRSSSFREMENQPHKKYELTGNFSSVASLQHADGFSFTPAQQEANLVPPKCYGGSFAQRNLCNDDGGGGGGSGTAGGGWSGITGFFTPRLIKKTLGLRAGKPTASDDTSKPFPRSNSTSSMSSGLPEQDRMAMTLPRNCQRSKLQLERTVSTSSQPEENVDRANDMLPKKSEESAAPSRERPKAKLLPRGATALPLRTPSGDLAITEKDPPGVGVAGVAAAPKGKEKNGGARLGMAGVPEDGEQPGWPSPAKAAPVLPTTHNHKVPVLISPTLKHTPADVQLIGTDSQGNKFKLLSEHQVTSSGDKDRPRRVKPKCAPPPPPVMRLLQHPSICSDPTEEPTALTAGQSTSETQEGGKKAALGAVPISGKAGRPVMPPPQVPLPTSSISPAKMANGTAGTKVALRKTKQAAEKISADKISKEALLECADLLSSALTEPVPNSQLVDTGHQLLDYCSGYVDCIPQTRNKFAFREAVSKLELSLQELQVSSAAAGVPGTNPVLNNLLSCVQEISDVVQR
# MET(Y1235D) = biological target: T11, MET(Y1235D) (Homo sapiens, UniProt P08581, Y1235D)
# T11 construct: purchased Eurofins DiscoverX KINOMEscan (scanTK)
# FGFR3(G697C) = biological target: T12, FGFR3(G697C) (Homo sapiens, UniProt P22607, G697C)
# T12 construct: purchased Eurofins DiscoverX KINOMEscan (scanTK)
# KIT(V559D,T670I) = biological target: T13, KIT(V559D,T670I) (Homo sapiens, UniProt P10721, T670I/V559D)
# T13 construct: purchased Eurofins DiscoverX KINOMEscan (scanTK)
smiles,measurement,setting,value
"CCOC(=O)c1cnc(S(C)(=O)=O)nc1N1CCC[C@@H](n2nc(-c3ccc(Oc4ccccc4)cc3)c3c(N)ncnc32)C1 [Compound 8c, Ethyl (R)-4-(3-(4-Amino-3-(4-phenoxyphenyl)-1H-pyrazolo[3,4-d]pyrimidin-1-yl)piperidin-1-yl)-2-(methylsulfonyl)pyrimidine-5-carboxylate]",remaining binding at 1 µM,"PYK2; @1000nM, read-out: %Control",81%
same,remaining binding at 1 µM,PYK2; read-out: %Control @1000nM,81%
same,difference in % of control vs compound Ib at 1 µM,ALK(L1196M); @1000nM,-23%
same,remaining binding at 1 µM,"ALK(L1196M); @1000nM, read-out: %Control",77%
same,remaining binding at 1 µM,ALK(L1196M); read-out: %Control @1000nM,77%
same,difference in %Control versus compound Ib at 1 µM,FGFR3; @1000nM,48%
same,remaining binding at 1 µM,"FGFR3; @1000nM, read-out: %Control",96%
same,remaining binding at 1 µM,FGFR3; read-out: %Control @1000nM,96%
same,remaining binding at 1 µM,"LTK; @1000nM, read-out: %Control",100%
same,remaining binding at 1 µM,LTK; read-out: %Control @1000nM,100%
same,remaining binding at 1 µM,"[1]; @1000nM, read-out: %Control",100%
same,remaining binding at 1 µM,[1]; read-out: %Control @1000nM,100%
same,difference in %Control versus compound Ib at 1 µM,CSF1R; @1000nM,16%
same,remaining binding at 1 µM,"CSF1R; @1000nM, read-out: %Control",96%
same,remaining binding at 1 µM,CSF1R; read-out: %Control @1000nM,96%
same,difference in %Control versus compound Ib at 1 µM,FES; @1000nM,-4%
same,remaining binding at 1 µM,"FES; @1000nM, read-out: %Control",96%
same,remaining binding at 1 µM,FES; read-out: %Control @1000nM,96%
same,%Control @1000nM,"FLT3(ITD,F691L)",100%
same,% difference (compound - Ib %Control),"FLT3(ITD,F691L)",0%
same,%Control,"FLT3(ITD,F691L)",100%
same,difference in %Control versus compound Ib at 1 µM,ALK; @1000nM,-25%
same,remaining binding at 1 µM,"ALK; @1000nM, read-out: %Control",69%
same,remaining binding at 1 µM,ALK; read-out: %Control @1000nM,69%
same,%Control @1000nM,"EGFR(L747-T751del,Sins)",74%
same,% difference (compound - Ib %Control),"EGFR(L747-T751del,Sins)",71.4%
same,%Control,"EGFR(L747-T751del,Sins)",74%
same,difference in %Control versus compound Ib at 1 µM,FLT3(D835V); @1000nM,46.1%
same,remaining binding at 1 µM,"FLT3(D835V); @1000nM, read-out: %Control",56%
same,remaining binding at 1 µM,FLT3(D835V); read-out: %Control @1000nM,56%
same,difference in %Control from reference compound Ib at 1 µM,ABL2; @1000nM,57%
same,remaining binding at 1 µM,"ABL2; @1000nM, read-out: %Control",98%
same,remaining binding at 1 µM,ABL2; read-out: %Control @1000nM,98%
same,remaining binding at 1 µM,"MET(Y1235D); @1000nM, read-out: %Control",100%
same,remaining binding at 1 µM,MET(Y1235D); read-out: %Control @1000nM,100%
same,difference in %Control versus compound Ib at 1 µM,FGFR3(G697C); @1000nM,50%
same,remaining binding at 1 µM,"FGFR3(G697C); @1000nM, read-out: %Control",90%
same,remaining binding at 1 µM,FGFR3(G697C); read-out: %Control @1000nM,90%
same,difference in %Control versus compound Ib at 1 µM,"KIT(V559D,T670I); @1000nM",-34%
same,remaining binding at 1 µM,"KIT(V559D,T670I); @1000nM, read-out: %Control",34%
same,remaining binding at 1 µM,"KIT(V559D,T670I); read-out: %Control @1000nM",34%
"COC(=O)c1cnc(S(C)(=O)=O)nc1N1CCCC(n2nc(-c3ccc(Oc4ccccc4)cc3)c3c(N)ncnc32)C1 (stereo not shown) [Compound 8b, Methyl 4-(3-(4-Amino-3-(4-phenoxyphenyl)-1H-pyrazolo[3,4-d]pyrimidin-1-yl)piperidin-1-yl)-2-(methylsulfonyl)pyrimidine-5-carboxylate]",remaining binding at 1 µM,"PYK2; @1000nM, read-out: %Control",85%
same,remaining binding at 1 µM,PYK2; read-out: %Control @1000nM,85%
same,difference in % of control vs compound Ib at 1 µM,ALK(L1196M); @1000nM,-8%
same,remaining binding at 1 µM,"ALK(L1196M); @1000nM, read-out: %Control",92%
same,remaining binding at 1 µM,ALK(L1196M); read-out: %Control @1000nM,92%
same,difference in %Control versus compound Ib at 1 µM,FGFR3; @1000nM,47%
same,remaining binding at 1 µM,"FGFR3; @1000nM, read-out: %Control",95%
same,remaining binding at 1 µM,FGFR3; read-out: %Control @1000nM,95%
same,remaining binding at 1 µM,"LTK; @1000nM, read-out: %Control",94%
same,remaining binding at 1 µM,LTK; read-out: %Control @1000nM,94%
same,remaining binding at 1 µM,"[1]; @1000nM, read-out: %Control",95%
same,remaining binding at 1 µM,[1]; read-out: %Control @1000nM,95%
same,difference in %Control versus compound Ib at 1 µM,CSF1R; @1000nM,12%
same,remaining binding at 1 µM,"CSF1R; @1000nM, read-out: %Control",92%
same,remaining binding at 1 µM,CSF1R; read-out: %Control @1000nM,92%
same,difference in %Control versus compound Ib at 1 µM,FES; @1000nM,0%
same,remaining binding at 1 µM,"FES; @1000nM, read-out: %Control",100%
same,remaining binding at 1 µM,FES; read-out: %Control @1000nM,100%
same,%Control @1000nM,"FLT3(ITD,F691L)",96%
same,% difference (compound - Ib %Control),"FLT3(ITD,F691L)",-4%
same,%Control,"FLT3(ITD,F691L)",96%
same,difference in %Control versus compound Ib at 1 µM,ALK; @1000nM,6%
same,remaining binding at 1 µM,"ALK; @1000nM, read-out: %Control",100%
same,remaining binding at 1 µM,ALK; read-out: %Control @1000nM,100%
same,%Control @1000nM,"EGFR(L747-T751del,Sins)",65%
same,% difference (compound - Ib %Control),"EGFR(L747-T751del,Sins)",62.4%
same,%Control,"EGFR(L747-T751del,Sins)",65%
same,difference in %Control versus compound Ib at 1 µM,FLT3(D835V); @1000nM,38.1%
same,remaining binding at 1 µM,"FLT3(D835V); @1000nM, read-out: %Control",48%
same,remaining binding at 1 µM,FLT3(D835V); read-out: %Control @1000nM,48%
same,difference in %Control from reference compound Ib at 1 µM,ABL2; @1000nM,38%
same,remaining binding at 1 µM,"ABL2; @1000nM, read-out: %Control",79%
same,remaining binding at 1 µM,ABL2; read-out: %Control @1000nM,79%
same,remaining binding at 1 µM,"MET(Y1235D); @1000nM, read-out: %Control",94%
same,remaining binding at 1 µM,MET(Y1235D); read-out: %Control @1000nM,94%
same,difference in %Control versus compound Ib at 1 µM,FGFR3(G697C); @1000nM,44%
same,remaining binding at 1 µM,"FGFR3(G697C); @1000nM, read-out: %Control",84%
same,remaining binding at 1 µM,FGFR3(G697C); read-out: %Control @1000nM,84%
same,difference in %Control versus compound Ib at 1 µM,"KIT(V559D,T670I); @1000nM",24%
same,remaining binding at 1 µM,"KIT(V559D,T670I); @1000nM, read-out: %Control",92%
same,remaining binding at 1 µM,"KIT(V559D,T670I); read-out: %Control @1000nM",92%
